The values below come from ChEMBL document CHEMBL1201862, “PubChem BioAssay data set” (2004).

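Exposure lasted 48 hours, with cells grown in 96-well plates and compounds tested at five concentrations. GI50 = concentration required for 50% inhibition of growth.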 Calls of active or inactive are those of the source. No stated cut-off is given here; in the data, active = GI50 up to about 1.1 µM and inactive = higher.

Some test systems named below: A498; ACHN; HCT-15; HL-60; HOP-62; HT-29; MDA-MB-435; NCI-H522; NCI/ADR-RES; OVCAR-5; RPMI-8226; SF-539; SK-MEL-2; SK-MEL-5; SN12C; TK-10; U-251; UACC-257; UACC-62; UO-31.
Holding throughout (test): NCI-60 cell line screen, 48 h

On to `CN1CN(c2ccccc2)C2(CCN(CCCSc3ccccc3NC(=O)/C=C/c3ccccc3)CC2)C1=O`, for which the GI50 in the test on A498 is 2.75 µM (inactive); with ACHN, 2.4 µM (inactive); with HCT-15 it was 6.92 µM; in the test on HL-60 it was 3.95 µM (inactive); in the test on HOP-62, 2.83 µM (inactive); in the test with HT-29, 2.29 µM (inactive). Moreover, the GI50 in the test with MDA-MB-435 was 2.61 µM (inactive); in the test on NCI-H522, 17.3 µM (inactive); in the test with NCI/ADR-RES, 3.87 µM (inactive); in the test on OVCAR-5, 22.6 µM (inactive); in the test with RPMI-8226 it was 1.89 µM (inactive); in the test on SF-539, 2.88 µM (inactive). The GI50 with SK-MEL-2 was 2.58 µM (inactive); in the test on SK-MEL-5 it was 3.55 µM (inactive); in the test on SN12C, 3.39 µM (inactive); with TK-10 it was 8.39 µM (inactive); in the test on U-251 it was 7.5 µM (inactive); with UACC-257 it was 1.78 µM (inactive). Also, the GI50 was 2.71 µM (inactive) in the test with UACC-62 and 2.99 µM (inactive) in the test on UO-31.

In the case of `COc1ccc(-c2cc(=O)c3c(O)c(OC)c(O)cc3o2)cc1O`, the GI50 with A498 was 4.9 µM (inactive); in the test on ACHN it was 13.8 µM (inactive); in the test with HCT-15, 1.9 µM; in the test with HL-60, 1.25 µM (inactive); in the test on HOP-62, 6.9 µM (inactive); in the test with HT-29, 16 µM (inactive). The GI50 with MDA-MB-435 was 0.582 µM (active); in the test on NCI-H522, 1.97 µM (inactive); with NCI/ADR-RES, 2.69 µM (inactive); in the test with OVCAR-5, 32.8 µM (inactive); in the test with RPMI-8226 it was 2.45 µM (inactive); in the test with SF-539 it was 2.69 µM (inactive). Further, the GI50 is 3.93 µM (inactive) with SK-MEL-2; 3.41 µM (inactive) in the test with SK-MEL-5; 6.68 µM (inactive) in the test on SN12C; 68.2 µM (inactive) with TK-10; 5.26 µM (inactive) in the test with U-251; 8.02 µM (inactive) in the test with UACC-257. Further, the figures for the GI50 in the test with UACC-62 and with UO-31 were 4.04 µM (inactive) and 6.27 µM (inactive), respectively.

For `CCOC(=O)CC[C@H](NC(=O)c1ccc(CNc2nc3cc(C(F)(F)F)ccc3nc2C(=O)OCC)cc1)C(=O)OCC`, the GI50 with A498 was > 100 µM (inactive); in the test with ACHN it was 33.8 µM (inactive); in the test on HCT-15, 76.2 µM; in the test with HL-60, > 100 µM (inactive); in the test with HOP-62, 9.25 µM (inactive); with HT-29, > 100 µM (inactive). Besides, the GI50 in the test on MDA-MB-435 was > 73.6 µM (inactive); with NCI-H522 it was 15.7 µM (inactive); with NCI/ADR-RES it was 26.5 µM (inactive); with OVCAR-5, 34.7 µM (inactive); with RPMI-8226 it was 5.58 µM (inactive); with SF-539, 4.59 µM (inactive). Also, the GI50 with SK-MEL-2 is > 48.2 µM (inactive); in the test on SK-MEL-5, 27.9 µM (inactive); with SN12C it was > 89.9 µM (inactive); with TK-10, 15.4 µM (inactive); in the test on U-251, 5.87 µM (inactive); with UACC-257 it was 42.8 µM (inactive). In addition, the GI50 in the test with UACC-62 was 16.1 µM (inactive); in the test with UO-31, 25.2 µM (inactive).

For `CCN(CC)CC1CCCCN1CC(=O)N1c2ccccc2NC(=O)c2ccccc21` (stereo not given), the GI50 in the test on A498 was > 100 µM (inactive); in the test on ACHN it was > 100 µM (inactive); in the test on HCT-15, > 100 µM; in the test with HL-60 it was > 100 µM (inactive); in the test on HOP-62, > 100 µM (inactive); in the test on HT-29, > 100 µM (inactive). The GI50 in the test with MDA-MB-435, in the test with NCI-H522, in the test with NCI/ADR-RES, with OVCAR-5, with RPMI-8226 and in the test with SF-539 was > 100 µM (inactive) each time. The GI50 with SK-MEL-2, with SK-MEL-5, with SN12C, with TK-10, in the test on U-251 and in the test with UACC-257 was > 100 µM (inactive) each time. For the same compound, the GI50 in the test on UACC-62 was > 100 µM (inactive); in the test on UO-31, 23.9 µM (inactive).

With `Cc1ccc(S(=O)(=O)N/N=C2\CCCCCCCCCCC2CN(C)C)cc1` (stereo not given), the GI50 is 17.7 µM (inactive) in the test on A498; 20.1 µM (inactive) in the test on ACHN; 15 µM with HCT-15; 19.4 µM (inactive) with HL-60; 17.6 µM (inactive) in the test with HOP-62; 15.5 µM (inactive) with HT-29. Also, the GI50 in the test with MDA-MB-435 was 14.7 µM (inactive); with NCI-H522, 14.3 µM (inactive); in the test with NCI/ADR-RES it was 14.9 µM (inactive); with OVCAR-5, 16.3 µM (inactive); with RPMI-8226, 38.7 µM (inactive); with SF-539 it was 17.1 µM (inactive). For the same compound, the GI50 was 10.6 µM (inactive) in the test on SK-MEL-2; 11.2 µM (inactive) in the test with SK-MEL-5; 20.6 µM (inactive) in the test on SN12C; 14.4 µM (inactive) with TK-10; 15.9 µM (inactive) in the test with U-251; 15 µM (inactive) in the test on UACC-257. For the same compound, the GI50 in the test with UACC-62 was 18.2 µM (inactive); in the test with UO-31 it was 9.04 µM (inactive).

`Clc1ccc(/C(=C\c2ccccc2)Cn2ccnc2)cc1`: the GI50 is 15.3 µM (inactive) in the test with A498; 16.6 µM (inactive) in the test with ACHN; 17.8 µM in the test with HCT-15; 14.1 µM (inactive) in the test on HL-60; 15.9 µM (inactive) in the test on HOP-62; 15.5 µM (inactive) in the test on HT-29. In addition, the GI50 in the test on MDA-MB-435 is 11.2 µM (inactive); in the test with NCI-H522 it was 8.15 µM (inactive); in the test with NCI/ADR-RES, 14.6 µM (inactive); in the test with OVCAR-5 it was 19.8 µM (inactive); in the test on RPMI-8226, 22.3 µM (inactive); in the test with SF-539, 16.3 µM (inactive). The GI50 with SK-MEL-2 was 14.3 µM (inactive); in the test with SK-MEL-5, 12.8 µM (inactive); in the test with SN12C it was 27.4 µM (inactive); in the test on TK-10 it was 35.6 µM (inactive); with U-251, 15.2 µM (inactive); in the test with UACC-257 it was 19.3 µM (inactive). The GI50 was 16.7 µM (inactive) in the test on UACC-62 and 5.28 µM (inactive) in the test on UO-31.

For the compound `C=CCN1C(=O)/C(=C/c2ccccc2)NC1=S`, the GI50 with A498 was 38.3 µM (inactive); with ACHN, > 100 µM (inactive); with HCT-15, > 100 µM; with HL-60 it was 43.5 µM (inactive); in the test on HOP-62 it was > 100 µM (inactive); in the test on HT-29, > 100 µM (inactive). The GI50 in the test with MDA-MB-435 is > 100 µM (inactive); in the test on NCI-H522, 94.6 µM (inactive); with NCI/ADR-RES it was > 100 µM (inactive); with OVCAR-5 it was > 100 µM (inactive); with RPMI-8226, 48.5 µM (inactive); with SF-539 it was > 100 µM (inactive). The GI50 in the test on SK-MEL-2 is > 100 µM (inactive); in the test on SK-MEL-5 it was 65.5 µM (inactive); in the test on SN12C it was > 100 µM (inactive); in the test on TK-10, > 100 µM (inactive); in the test with U-251 it was > 100 µM (inactive); with UACC-257, 74.1 µM (inactive). Further, the GI50 with UACC-62 and with UO-31 was > 100 µM (inactive) in each case.

Regarding `Nc1nc2c(c(=O)[nH]1)N=C(COP(=O)(O)OP(=O)(O)O)CN2`, the GI50 was > 100 µM (inactive) in the test on A498; > 100 µM (inactive) with ACHN; > 100 µM with HCT-15; > 100 µM (inactive) with HL-60; > 100 µM (inactive) with HOP-62; > 100 µM (inactive) in the test with HT-29. In addition, the GI50 in the test on MDA-MB-435, with NCI-H522, in the test with NCI/ADR-RES, in the test on OVCAR-5, in the test with RPMI-8226 and in the test on SF-539 was > 100 µM (inactive) in each case. Also, the GI50 in the test on SK-MEL-2, with SK-MEL-5, with SN12C, in the test with TK-10, with U-251 and with UACC-257 was > 100 µM (inactive) throughout. The GI50 in the test with UACC-62 and with UO-31 was > 100 µM (inactive) each time.

Take `C=CCN1C(=O)CNC1=S`: the GI50 in the test on A498 was > 100 µM (inactive); with ACHN, > 100 µM (inactive); in the test with HCT-15 it was > 100 µM; with HL-60, 23.7 µM (inactive); with HOP-62, > 100 µM (inactive); with HT-29 it was > 100 µM (inactive). Also, the GI50 with MDA-MB-435, in the test with NCI-H522, in the test with NCI/ADR-RES, in the test with OVCAR-5, in the test with RPMI-8226 and in the test on SF-539 was > 100 µM (inactive) in each case. Moreover, the GI50 with SK-MEL-2, in the test on SK-MEL-5, in the test with SN12C, in the test on TK-10, in the test on U-251 and in the test with UACC-257 was > 100 µM (inactive) each time. Moreover, the GI50 in the test with UACC-62 and with UO-31 was > 100 µM (inactive) each time.

`N/C(=N\N/C=C1\C=Nc2cc(C(F)(F)F)ccc2C1=O)NO`: the GI50 is > 10 µM (inactive) in the test on A498; > 10 µM (inactive) in the test with ACHN; > 10 µM in the test on HCT-15; > 10 µM (inactive) with HL-60; > 10 µM (inactive) in the test with HOP-62; > 10 µM (inactive) with HT-29. The GI50 in the test with MDA-MB-435, in the test with NCI-H522, with NCI/ADR-RES, with OVCAR-5, in the test on RPMI-8226 and with SF-539 was > 10 µM (inactive) in each case. For the same compound, the GI50 in the test on SK-MEL-2, in the test with SK-MEL-5, with SN12C, in the test on TK-10, in the test on U-251 and in the test on UACC-257 was > 10 µM (inactive) each time. For the same compound, the GI50 with UACC-62 and with UO-31 was > 10 µM (inactive) in each case.
